Measurements: patent US20240027453A1, “METHOD FOR DETECTION AND QUANTITATIVE MONITORING OF INFECTIONS WITH HERPESVIRUSES” (The Trustees of Princeton University, priority 2020, published 2024)
Read-outs that look alike come from different tables or passages of the source.

Test system: HCMV
Format: cell-based
Description: In example herpesvirus PRM assay methods shown herein, cell pellets were lysed in 2% SDS, 100 mM NaCl, 0.5 mM EDTA, 50 mM Tris, pH 8.2, and 50 μg of protein was reduced and alkylated with 25 mM TCEP and 50 mM CAM respectively for 20 min at 70° C. Proteins were then precipitated via methanol chloroform precipitation (Wessel & Flugg, Anal Biochem. 138(1):141-143, 1984), resuspended in 50 mM HEPES, pH 8.2 and digested overnight with trypsin (50:1 protein:enzyme w/w ratio). Digested peptides were desalted by SDB-RPS StageTip as previously described (Lum et al., Cell Syst., 7(6):[…], 2018; Greco et al., Methods Mol Biol 1410:39-63, 2016; Federspiel & Cristea, Methods Mol Biol., 1977:115-143, 2019).
Peptides (1.0 μg on column) were analyzed by LC-MS/MS using a Dionex Ultimate 3000 UHPLC coupled online to an EASYSpray ion source and a Q Exactive HF. Peptides were separated on an EASYSpray C18 column (75 μm×25 cm) heated to 50° C. using a linear gradient of 5% B to 32% B over 60 min at a flow rate of 250 nL/min and were ionized at 1.7 kv. Mobile phase A consisted of 0.1% FA in H2O and mobile phase B consisted of 0.1% FA, 2.9% H2O in ACN.
The PRM method was controlled by a peptide inclusion list with retention time windows of 6 min for selected precursor ions.
The PRM assay was developed and analyzed using the open-source software Skyline (Maclean et al., Bioinformatics 26(7):966-968, 2010). Summed area under the curve of 3-4 transitions per peptide was used for quantitation. Targeted peptides were normalized to host protein loading control peptides. Peptide values for each sample were scaled to the average of each peptide across all runs. The average of multiple peptides was used as the inferred value for the protein measurement when more than one peptide was quantified (Federspiel et al., PLoS Biol. 17(9):e3000437. Doi: 10.1371/journal.pbio.3000437). PRM quantitation data were graphed using the Python Seaborn and Matplotlib libraries.
MRC5 primary human fibroblasts (HFs) (ATCC CCL-171) were used as the model system for HSV-1 and HCMV infections and were cultured in complete growth medium (DMEM supplemented with 10% fetal bovine serum and 1% penicillin-streptomycin antibiotics) at 37° C. and 5% CO2. iSLK.219 cells harboring latent KSHV (a gift from Dr. Britt Glaunsinger, University of California, Berkeley) were grown in complete growth medium supplemented with 500 μg/ml hygromycin (ThermoFisher Scientific, 10687010) at 37° C. and 5% CO2. All cells were used for experiments within a maximum of 10 passages.
Wild type HSV-1 strain 17+ (a gift from Beate Sodeik, Hannover Medical School, Hannover, Germany) was propagated as previously described (Diner et al., 2015). Briefly, PO stocks were generated by electroporating pBAC-HSV-1 into U-2 OS cells. […] In a similar manner, wild type HCMV strain AD169 was produced from BAC electroporation into HFs and working stocks were propagated by infecting HFs at a low level. In both cases, cell-associated virus was released by sonication, combined with supernatant virus, then concentrated by ultracentrifugation (20,000 rpm, 2 hours, 4° C. with SW28 swinging bucket rotor [Beckman Coulter]) over a 10% ficoll (HSV-1) or 20% sorbitol (HCMV) cushion. Virus stock titers were determined by plaque assay for HSV-1 or tissue culture infectious dose (TCID50) for HCMV and infections were performed at a multiplicity of infection (MOI) of 3.
12 hours prior to virus infection or reactivation, cells were treated with either the small molecule drug or DMSO/PBS control at an equivalent volume. […] For infection cycles lasting longer than 24 hours, small molecule drugs were re-added to the cell culture medium every 24 hours. Upon collection, cells were rinsed with PBS, scraped into a microcentrifuge tube, pelleted by centrifugation, and rinsed again with PBS.

Nc1c(S(=O)(=O)c2ccccc2)c2nc3ccccc3nc2n1-c1ccc(F)cc1 [CAY10602]
GO (P16750) protein level (timepoint 72, L): 0.05989 | IR11 (P16809) protein level (timepoint 72, L): 0.4344 | MCP (P16729) protein level (timepoint 72, L): 0.02624 | SCP (Q7M6N6) protein level (timepoint 72, L): 0.015 | TRM2 (P16792) protein level (timepoint 72, L): 0.0795 | UL22A (P16845) protein level (timepoint 72, L): 0.215 | UL25 (P16761) protein level (timepoint 72, L): 0.096 | UL29 (P16764) protein level (timepoint 72, L): 0.506 | UL30 (P16765) protein level (timepoint 72, L): 0.1431 | UL31 (P16848) protein level (timepoint 72, L): 0.1447 | UL43 (P16781) protein level (timepoint 72, L): 0.03176 | UL52 (P16793) protein level (timepoint 72, L): 0.1191 | UL76 (P16725) protein level (timepoint 72, L): 0.03192 | UL80 (P16753) protein level (timepoint 72, L): 0.06052 | UL82 (P06726) protein level (timepoint 72, L): 0.1042 | UL87 (P16730) protein level (timepoint 72, L): 0.09029 | UL88 (P16731) protein level (timepoint 72, L): 0.1686 | UL94 (P16800) protein level (timepoint 72, L): 0.1145 | UL99 (P13200) protein level (timepoint 72, L): 0.05513 | UL103 (P16734) protein level (timepoint 72, L): 0.09275 | UL117 (P16770) protein level (timepoint 72, L): 0.3151 | gH (P12824) protein level (timepoint 72, L): 0.1032 | gL (P16832) protein level (timepoint 72, L): 0.08246 | gM (P16733) protein level (timepoint 72, L): 0.06242 | gN (P16795) protein level (timepoint 72, L): 0.1122 | IR10 (P16808) protein level (timepoint 72, LL): 0.03558 | IR12 (P16810) protein level (timepoint 72, LL): 0.4497 | TRM3 (P16732) protein level (timepoint 72, LL): 0.03658 | TRX1 (P16783) protein level (timepoint 72, LL): 0.02099 | TRX2 (P16728) protein level (timepoint 72, LL): 0.02193 | UL24 (P16760) protein level (timepoint 72, LL): 0.1166 | UL40 (P16780) protein level (timepoint 72, LL): 0.4727 | UL47 (P16784) protein level (timepoint 72, LL): 0.06008 | UL49 (P16786) protein level (timepoint 72, LL): 0.1643 | UL69 (P16749) protein level (timepoint 72, LL): 0.2062 | UL70 (P17149) protein level (timepoint 72, LL): 0.4194 | UL83 (P06725) protein level (timepoint 72, LL): 0.02048 | UL132 (P69338) protein level (timepoint 72, LL): 0.1287 | US15 (P09718) protein level (timepoint 72, LL): 0.4326 | CVC2 (P16726) protein level (timepoint 96, DE): 0.1714 | DBP (P17147) protein level (timepoint 96, DE): 0.7941 | HELI (P16736) protein level (timepoint 96, DE): 0.8017 | IR01 (P09710) protein level (timepoint 96, DE): 0.4575 | NEC1 (P16794) protein level (timepoint 96, DE): 0.0869 | NEC2 (P16791) protein level (timepoint 96, DE): 0.2886 | RIR1 (P16782) protein level (timepoint 96, DE): 0.2098 | TRM1 (P16724) protein level (timepoint 96, DE): 0.3134 | UL4 (P17146) protein level (timepoint 96, DE): 0.2128 | UL26 (P16762) protein level (timepoint 96, DE): 0.2828 | UL32 (P08318) protein level (timepoint 96, DE): 0.1168 | UL34 (P16812) protein level (timepoint 96, DE): 0.2231 | UL35 (P16766) protein level (timepoint 96, DE): 0.1252 | UL38 (P16779) protein level (timepoint 96, DE): 0.6672 | UL44 (P16790) protein level (timepoint 96, DE): 0.176 | UL48 (P16785) protein level (timepoint 96, DE): 0.2807 | UL54 (P08546) protein level (timepoint 96, DE): 0.9075 | UL71 (P16823) protein level (timepoint 96, DE): 0.4754 | UL78 (P16751) protein level (timepoint 96, DE): 0.4235 | UL84 (P16727) protein level (timepoint 96, DE): 0.2328 | UL95 (P16801) protein level (timepoint 96, DE): 0.312 | UL96 (P16787) protein level (timepoint 96, DE): 0.4112 | UL97 (P16788) protein level (timepoint 96, DE): 0.3037 | UL98 (P16789) protein level (timepoint 96, DE): 0.4674 | UL102 (P16827) protein level (timepoint 96, DE): 0.9006 | UL104 (P16735) protein level (timepoint 96, DE): 0.3067 | UL112/UL113 (P17151) protein level (timepoint 96, DE): 0.5114 | UL114 (P16769) protein level (timepoint 96, DE): 0.7883 | UL119/UL118 (P16739) protein level (timepoint 96, DE): 0.6695 | UL128 (P16837) protein level (timepoint 96, DE): 0.1937 | US8 (P09730) protein level (timepoint 96, DE): 0.6801 | US9 (P09729) protein level (timepoint 96, DE): 0.7084 | US12 (P09721) protein level (timepoint 96, DE): 0.4505 | US13 (P09720) protein level (timepoint 96, DE): 0.8895 | US14 (P09719) protein level (timepoint 96, DE): 0.3447 | US18 (P69334) protein level (timepoint 96, DE): 0.9283 | US22 (P09722) protein level (timepoint 96, DE): 0.6231 | US23 (P09701) protein level (timepoint 96, DE): 0.5304 | US24 (P09700) protein level (timepoint 96, DE): 0.485 | US34 (P09709) protein level (timepoint 96, DE): 0.2125 | gB (P06473) protein level (timepoint 96, DE): 0.285 | IRS1 (P09715) protein level (timepoint 96, IE): 0.7821 | TRS1 (P09695) protein level (timepoint 96, IE): 0.7146 | UL13 (P16755) protein level (timepoint 96, IE): 0.2986 | UL36 (P16767) protein level (timepoint 96, IE): 0.5836 | UL37 (P16778) protein level (timepoint 96, IE): 0.8017 | UL122 (P19893) protein level (timepoint 96, IE): 0.1642 | UL123 (P13202) protein level (timepoint 96, IE): 0.4758 | CVC1 (P16799) protein level (timepoint 96, L): 0.2252 | GO (P16750) protein level (timepoint 96, L): 0.2443 | IR11 (P16809) protein level (timepoint 96, L): 0.9075 | MCP (P16729) protein level (timepoint 96, L): 0.1482 | SCP (Q7M6N6) protein level (timepoint 96, L): 0.1246 | TRM2 (P16792) protein level (timepoint 96, L): 0.19 | UL22A (P16845) protein level (timepoint 96, L): 0.3485 | UL25 (P16761) protein level (timepoint 96, L): 0.2353 | UL29 (P16764) protein level (timepoint 96, L): 0.6674 | UL30 (P16765) protein level (timepoint 96, L): 0.2355 | UL31 (P16848) protein level (timepoint 96, L): 0.2462 | UL43 (P16781) protein level (timepoint 96, L): 0.05313 | UL52 (P16793) protein level (timepoint 96, L): 0.3224 | UL76 (P16725) protein level (timepoint 96, L): 0.1513 | UL79 (P16752) protein level (timepoint 96, L): 0.3299 | UL80 (P16753) protein level (timepoint 96, L): 0.2674 | UL82 (P06726) protein level (timepoint 96, L): 0.2566 | UL87 (P16730) protein level (timepoint 96, L): 0.2646 | UL88 (P16731) protein level (timepoint 96, L): 0.3926 | UL94 (P16800) protein level (timepoint 96, L): 0.2776 | UL99 (P13200) protein level (timepoint 96, L): 0.1753 | UL103 (P16734) protein level (timepoint 96, L): 0.2489
